Values quoted from earlier work as cited in patent publication US20170348276A1 (Acerus Pharmaceutical Corporation, priority 2016, published 2017).

Legend:
[1] = percent of the activity of Δ9-THC

SMILES | Bioavailability from oil-based oral delivery (oil-based capsule, oral) | oral bioavailability (oral administration, extensive first pass hepatic metabolism) | bioavailability, oral-mucosal/sublingual delivery (sprays/lozenges) | activity relative to Δ9-THC [1]
C=C(C)[C@@H]1CCC(C)=C[C@H]1c1c(O)cc(CCCCC)cc1O [CBD, Cannabidiol] | ~6% | < 5% | up to 12% | 
CCCCCc1cc(O)c2c(c1)OC(C)(C)c1ccc(C)cc1-2 [Cannabinol (CBN), Cannabinol] |  |  |  | 10%
